{"source": "patent US9371295B2", "about": "“Compounds for use in the treatment of disorders that are ameliorated by inhibition of HDAC” (IRBM—Science Park S.p.A., priority 2012, dated 2016)", "key": {"[1]": {"test_system": "human γ-globin promoter (EGFP reporter) in K562 cells", "assay": "HbF activation assay on K562 (EGFP/RFP reporter model system for screening of inducers of fetal hemoglobin)", "type": "cell-based", "conditions": "60 hours", "how_it_was_run": "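K562 cells stably carrying EGFP under the human γ-globin promoter and far-red FP under the β-globin promoter, with the LCR, were seeded at 1000 cells/well. Cells were exposed to compounds (0.25% DMSO final) for 60 h at 37 °C. Fluorescence was read by plate cytometry, normalized to Hoechst nuclei count, which also indicated proliferation or death.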"}, "K562 cells": {"test_system": "K562 cells", "assay": "Erythroid differentiation of K562 cells by benzidine staining", "type": "cell-based, human", "description": "The biological activity of the compounds of the present application was evaluated by examining the capacity to modulate the expression of γ-globin genes in the human K562 cell line, which is capable of differentiating in the erythroid manner by expressing genes for γ-globin if treated with modifiers of the biological response that are suitable for the purpose (Bianchi et al, J. Haematol., 113, 4, p. 951-961, 2001). The human K562 cells were cultured in RPMI 1640 medium (Sigma, St Louis, Mo., USA) supplemented with 10% foetal bovine serum (FBS; Analitical de Mori, Milan, Italy), 100 units/mL penicillin and 100 μg/mL streptomycin. Cell growth was determined according to cell number/ml, using a cell counter (Coulter Electronics, Hialeah, Fla., USA). For experiments, K562 cell cultures were initiated at 3×10^4/mL and the chemical inducers at the indicated concentrations added. Following 3-5 days incubation without a medium change erythroid differentiation was determined by staining the cells in a solution containing 0.2% benzidine in 0.5 M glacial acetic acid, 10% H2O2. Benzidine positivity indicates the presence of intracellular Hb.\nThe erythroid differentiation of K562 cells was investigated following treatment with selected compounds of the invention. The effect on cell proliferation was first determined for all tested molecules by culture of K562 cells in the presence of increasing concentration of the compounds. The cell number per sample was then determined after 3, 4 and 5 days. The IC50 values reported in Table 3 for the antiproliferative effect were calculated from the concentration of the compounds necessary to decrease the cell number to 50% of the values obtained in control untreated K562 cell cultures, after a 5 days culture period. Erythroid differentiation was measured by benzidine staining after 5, 6 and 7 days of cell culture and by quantitative reverse transcriptase polymerase-chain reaction (RT-qPCR) to quantify the expression of γ-globin mRNA. Different concentrations of tested compounds were employed because of their differing antiproliferative effects; accordingly, concentrations were chosen to maximize the erythroid induction effect without extensive reduction of cell viability. In Table 3 the % of benzidine positive cells and the increase in γ-globin mRNA assayed by RT-qPCR after 6 days of culture period are reported.\nTable 4 reports induction of erythroid differentiation in K562 cells treated with an optimized concentration of the compound 2 in comparison with known inducers. Compound 2 is able to stimulate an increase of the proportion of benzidine-positive (hemoglobin producing) K562 cells. This is associated with an increase of the expression of γ-globin mRNA."}}, "data": [{"smiles": "CCC(=O)CCCCC[C@H](NC(=O)C1CN(C)C1)c1ncc(-c2cc3ccccc3nc2OC)o1", "note": "[Compound 2, (S)-N-(1-(5-(2-methoxyquinolin-3-yl)oxazol-2-yl)-7-oxononyl)-1-methylazetidine-3-carboxamide]", "values": [{"measurement": "EC50", "setting": "[1]", "result": "100 to 1000", "unit": "nM"}, {"measurement": "% of benzidine positive cells after 6 days", "setting": "K562 cells; 70 nM", "result": 10, "unit": "%"}, {"measurement": "Benzidine positive cells (%)", "setting": "K562 cells; optimized concentration, mean ± SD of six experiments", "result": "25 ± 3.5", "unit": "%"}]}, {"smiles": "CCC(=O)CCCCC[C@H](NC(=O)C(=O)N1CCN(C)CC1)c1ncc(-c2cc3ccccc3nc2OC)o1", "note": "[Compound 37, (S)-N-(1-(5-(2-methoxyquinolin-3-yl)oxazol-2-yl)-7-oxononyl)-2-(4-methylpiperazin-1-yl)-2-oxoacetamide]", "values": [{"measurement": "EC50", "setting": "[1]", "result": "> 1000", "unit": "nM"}, {"measurement": "% of benzidine positive cells after 6 days", "setting": "K562 cells; 1600 nM", "result": 16, "unit": "%"}]}, {"smiles": "CCC(=O)CCCCC[C@H](NC(=O)C1(F)CN(C)C1)c1ncc(-c2cc3ccccc3nc2OC)o1", "note": "[Compound 67, (S)-3-fluoro-N-(1-(5-(2-methoxyquinolin-3-yl)oxazol-2-yl)-7-oxononyl)-1-methylazetidine-3-carboxamide]", "values": [{"measurement": "EC50", "setting": "[1]", "result": "> 1000", "unit": "nM"}, {"measurement": "% of benzidine positive cells after 6 days", "setting": "K562 cells; 1800 nM", "result": 12, "unit": "%"}]}, {"smiles": "CCC(=O)CCCCC[C@H](NC(=O)Cn1nc(C)nc1C)c1ncc(-c2cc3ccccc3nc2OC)o1", "note": "[Compound 80, (S)-2-(3,5-dimethyl-1H-1,2,4-triazol-1-yl)-N-(1-(5-(2-methoxyquinolin-3-yl)oxazol-2-yl)-7-oxononyl)acetamide]", "values": [{"measurement": "EC50", "setting": "[1]", "result": "100 to 1000", "unit": "nM"}, {"measurement": "% of benzidine positive cells after 6 days", "setting": "K562 cells; 200 nM", "result": 1, "unit": "%"}]}, {"smiles": "CCC(=O)CCCCC[C@H](NC(=O)c1cnc(CN2CCCC2)s1)c1ncc(-c2cc3ccccc3nc2OC)o1", "note": "[Compound 82, (S)-N-(1-(5-(2-methoxyquinolin-3-yl)oxazol-2-yl)-7-oxononyl)-2-(pyrrolidin-1-ylmethyl)thiazole-5-carboxamide]", "values": [{"measurement": "EC50", "setting": "[1]", "result": "100 to 1000", "unit": "nM"}, {"measurement": "% of benzidine positive cells after 6 days", "setting": "K562 cells; 260 nM", "result": 4.5, "unit": "%"}]}, {"smiles": "CCC(=O)CCCCC[C@H](NC(=O)C1CN(C)C1)c1ncc(-c2cc3ccccc3n(C)c2=O)o1", "note": "[Compound 92, (S)-1-methyl-N-(1-(5-(1-methyl-2-oxo-1,2-dihydroquinolin-3-yl)oxazol-2-yl)-7-oxononyl)azetidine-3-carboxamide]", "values": [{"measurement": "EC50", "setting": "[1]", "result": "100 to 1000", "unit": "nM"}, {"measurement": "% of benzidine positive cells after 6 days", "setting": "K562 cells; 40 nM", "result": 8, "unit": "%"}]}, {"smiles": "CCC(=O)CCCCC[C@H](NC(=O)CCN(C)C)c1ncc(-c2cc3ccccc3n(C)c2=O)o1", "note": "[Compound 106, (S)-3-(dimethylamino)-N-(1-(5-(1-methyl-2-oxo-1,2-dihydroquinolin-3-yl)oxazol-2-yl)-7-oxononyl)propanamide]", "values": [{"measurement": "EC50", "setting": "[1]", "result": "< 100", "unit": "nM"}, {"measurement": "% of benzidine positive cells after 6 days", "setting": "K562 cells; 60 nM", "result": 8.5, "unit": "%"}]}, {"smiles": "CCC(=O)CCCCC[C@H](NC(=O)C(C)(C)N(C)C)c1ncc(-c2cc3ccccc3n(C)c2=O)o1", "note": "[Compound 107, (S)-2-(dimethylamino)-2-methyl-N-(1-(5-(1-methyl-2-oxo-1,2-dihydroquinolin-3-yl)oxazol-2-yl)-7-oxononyl)propanamide]", "values": [{"measurement": "EC50", "setting": "[1]", "result": "< 100", "unit": "nM"}, {"measurement": "% of benzidine positive cells after 6 days", "setting": "K562 cells; 40 nM", "result": 2, "unit": "%"}]}, {"smiles": "CCC(=O)CCCCC[C@H](NC(=O)C1CCN(C)CC1)c1ncc(-c2cc3ccccc3n(C)c2=O)o1", "note": "[Compound 109, (S)-1-methyl-N-(1-(5-(1-methyl-2-oxo-1,2-dihydroquinolin-3-yl)oxazol-2-yl)-7-oxononyl)piperidine-4-carboxamide]", "values": [{"measurement": "EC50", "setting": "[1]", "result": "100 to 1000", "unit": "nM"}, {"measurement": "% of benzidine positive cells after 6 days", "setting": "K562 cells; 60 nM", "result": 1.5, "unit": "%"}]}, {"smiles": "CCC(=O)CCCCC[C@H](NC(=O)c1cncs1)c1ncc(-c2cc3ccccc3n(C)c2=O)o1", "note": "[Compound 110, (S)-N-(1-(5-(1-methyl-2-oxo-1,2-dihydroquinolin-3-yl)oxazol-2-yl)-7-oxononyl)thiazole-5-carboxamide]", "values": [{"measurement": "EC50", "setting": "[1]", "result": "100 to 1000", "unit": "nM"}, {"measurement": "% of benzidine positive cells after 6 days", "setting": "K562 cells; 300 nM", "result": 5, "unit": "%"}]}, {"smiles": "CCC(=O)CCCCC[C@H](NC(=O)C1(N(C)C)CCCC1)c1ncc(-c2cc3ccccc3n(C)c2=O)o1", "note": "[Compound 111, (S)-1-(dimethylamino)-N-(1-(5-(1-methyl-2-oxo-1,2-dihydroquinolin-3-yl)oxazol-2-yl)-7-oxononyl)cyclopentanecarboxamide]", "values": [{"measurement": "EC50", "setting": "[1]", "result": "< 100", "unit": "nM"}, {"measurement": "% of benzidine positive cells after 6 days", "setting": "K562 cells; 60 nM", "result": 6, "unit": "%"}]}]}
